According to ChEMBL document CHEMBL1149225, “Synthesis and evaluation of substituted 4-alkoxy-2-aminopyridines as novel neuropeptide Y1 receptor antagonists” (Bioorg Med Chem Lett, 2004):

Columns and labels:
[1] = biological target: T1, Neuropeptide Y receptor type 1 (Homo sapiens, UniProt P25929); assay: Binding affinity against human recombinant NPY Y1 receptor in CHO/dhFr- cell membranes using [125I]PYY
T1 sequence (P25929 whole entry): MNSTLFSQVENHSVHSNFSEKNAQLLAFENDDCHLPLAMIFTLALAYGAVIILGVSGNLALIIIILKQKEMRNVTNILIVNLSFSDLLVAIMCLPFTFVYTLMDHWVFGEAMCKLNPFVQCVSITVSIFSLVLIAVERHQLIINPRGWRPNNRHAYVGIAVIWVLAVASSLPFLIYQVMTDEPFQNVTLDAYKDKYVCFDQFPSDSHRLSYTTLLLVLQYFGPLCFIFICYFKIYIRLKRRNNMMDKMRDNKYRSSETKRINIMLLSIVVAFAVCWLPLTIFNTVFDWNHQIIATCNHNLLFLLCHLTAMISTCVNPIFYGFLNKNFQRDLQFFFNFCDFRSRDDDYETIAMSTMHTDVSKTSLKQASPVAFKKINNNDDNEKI

CHO = assay: Inhibitory concentration against 1 nM NPY induced [Ca2+] increase in CHO/dhFr- cells expressing recombinant human Y1 receptor; format: functional, cell-based; conditions: Cricetulus griseus

Structure (SMILES) | IC50 [1] | IC50 (CHO)
CCCOc1cc(CCc2nc(C)c(CC)s2)nc(NCc2cc(Cl)cc(NC(=O)OC(C)C)c2)c1 | 17 nM | 
CCOc1cc(CCc2nc(C)c(CC)s2)nc(NCc2cc(Cl)cc(NC(=O)OC(C)C)c2)c1 | 33 nM | 
CCCCCOc1cc(CCc2nc(C)c(CC)s2)nc(NCc2cc(Cl)cc(NC(=O)OC(C)C)c2)c1 | 35 nM | 
CCCCOc1cc(CCc2nc(C)c(CC)s2)nc(NCc2cc(Cl)cc(NC(=O)OC(C)C)c2)c1 | 16 nM | 
CCc1sc(CCc2cc(OC3CCC3)cc(NCc3cc(Cl)cc(NC(=O)OC(C)C)c3)n2)nc1C | 11 nM | 
CCc1sc(CCc2cc(OC(C)C)cc(NCc3cc(Cl)cc(NC(=O)OC(C)C)c3)n2)nc1C | 12 nM | 
CCc1sc(CCc2cc(OC3CCCC3)cc(NCc3cc(Cl)cc(NC(=O)OC(C)C)c3)n2)nc1C | 11 nM | 
CCc1sc(CCc2cc(OCC(C)(C)C)cc(NCc3cc(Cl)cc(NC(=O)OC(C)C)c3)n2)nc1C | 55 nM | 
CCc1sc(CCc2cc(N3CCOCC3)cc(NCc3cc(Cl)cc(NC(=O)OC(C)C)c3)n2)nc1C | 1.4 nM | 2.9 nM
CCc1sc(CCc2cc(OCCc3ccccc3)cc(NCc3cc(Cl)cc(NC(=O)OC(C)C)c3)n2)nc1C | 30 nM | 
CCc1sc(CCc2cc(OCCCc3cccnc3)cc(NCc3cc(Cl)cc(NC(=O)OC(C)C)c3)n2)nc1C | 6.5 nM | 46 nM
CCc1sc(CCc2cc(OC3CCOCC3)cc(NCc3cc(Cl)cc(NC(=O)OC(C)C)c3)n2)nc1C | 4.4 nM | 42 nM
CCCCCCOc1cc(CCc2nc(C)c(CC)s2)nc(NCc2cc(Cl)cc(NC(=O)OC(C)C)c2)c1 | 63 nM | 
CCc1sc(CCc2cc(OC(C)COC)cc(NCc3cc(Cl)cc(NC(=O)OC(C)C)c3)n2)nc1C (stereo not drawn) | 8.4 nM | 59 nM
CCc1sc(CCc2cc(OCCCc3ccccc3)cc(NCc3cc(Cl)cc(NC(=O)OC(C)C)c3)n2)nc1C | 20 nM | 
CCCCCCCOc1cc(CCc2nc(C)c(CC)s2)nc(NCc2cc(Cl)cc(NC(=O)OC(C)C)c2)c1 | 72 nM | 
CCc1sc(CCc2cc(OC)cc(NCc3cc(Cl)cc(NC(=O)OC(C)C)c3)n2)nc1C | 234 nM | 
CCc1sc(CCc2cc(OCc3ccccc3)cc(NCc3cc(Cl)cc(NC(=O)OC(C)C)c3)n2)nc1C | 237 nM | 
CCc1sc(CCc2cc(OC(CC)CC)cc(NCc3cc(Cl)cc(NC(=O)OC(C)C)c3)n2)nc1C | 5.5 nM | 33 nM
CCc1sc(CCc2cc(OCC3(C)CC3)cc(NCc3cc(Cl)cc(NC(=O)OC(C)C)c3)n2)nc1C | 17 nM | 
CC/C=C\CCOc1cc(CCc2nc(C)c(CC)s2)nc(NCc2cc(Cl)cc(NC(=O)OC(C)C)c2)c1 | 4.7 nM | 64 nM
CCc1sc(CCc2cc(OC3CCCCC3)cc(NCc3cc(Cl)cc(NC(=O)OC(C)C)c3)n2)nc1C | 29 nM | 
